Source: patent publication US11485728B2, “Small molecules for the treatment of autoimmune diseases and cancer” (Athos Therapeutics, Inc., priority 2020, dated 2022)

Assays:
CYP3A4 = molecular target: T1, CYP3A4 (Homo sapiens, UniProt P08684); assay: CYP-direct inhibition, CYP3A4; assay type: in vitro ADME
T1 construct: from tissue; host or cells: pooled human liver microsomes
Method: (§1) Many drugs inhibit cytochrome P450 enzymes to cause clinically significant changes in the pharmacokinetics of other drugs. In vitro cytochrome P450 inhibition, can provide crucial information in evaluating potential clinical drug-drug interactions and is useful for focusing in vivo tests to areas of concern. The cytochrome P450 inhibition assay was developed by preparing a working cocktail solution consisting of six probe substrates 10 μM ethoxy-resorufin (CYP1A2), 100 μM rosiglitazone (CYP2C8), 50 μM diclofenac (CYP2C9), 300 μM S-mephenytoin (CYP2C19), 50 μM dextromethorphan (CYP2D6), and 20 μM midazolam (CYP3A4). A mixture solution consists of 140 uL of 0.286 mg/mL of pooled human liver microsome working solution and 20 uL working solutions of test articles, standard control inhibitors, or positive control placebo and 20 uL of substrate cocktail mixture working solution was prepared. The mixture solution was pre-warm in a gentle shaking bath at 37±2° C. for 5 minutes. The enzymatic reaction started by adding 20 uL of NRS working solution to the mixture solution and incubated for 10 minutes at 37±2° C. To stop the reaction, an addition of 400 μL cold stop solution (acetonitrile containing 50 ng/mL Tolbutamide as an internal standard (I.Std.) was added to the mixture solution. The final concentration of test article, inhibitors, substrates, and cofactors are noted in Table 0.1 below. Two individual samples were prepared for each test compound. The extracted samples were vortexed and then centrifuged at 4500 rpm for 7 minutes using Eppendorf Centrifuge 5910R. 200 uL of supernatant was diluting with 200 uL of 50% Methanol into 96-DW plate for LC/MS/MS analysis
(§2) Concentration-response plots are used to determine the effects of an inhibitor on an enzymatic reaction. A typical concentration-response plot provides fractional activity (Y axis) is plotted as a function of log inhibitor concentration (X axis). The data are fitted using a standard Sigmoidal dose-response equation which is also called a […] logistic equation. The concentration of compound that results in 50% inhibition of maximal activity is termed as the IC50 (inhibitor concentration yielding 50% inhibition). IC50 value is calculated using Prism GraphPad software, version 9. […].
(§3) Cytochrome P450 inhibition of a drug is a key factor in determining pharmacokinetic drug-drug interactions. The objective of this study was to evaluate the inhibition potential of G9a inhibitors on six (6) major human cytochrome P450 enzymes, including CYP1A2, CYP2C8, CYP2C9, CYP2C19, CYP2D6, and CYP3A4. Inhibition was determined by using a substrate cocktail and analyzing the rate of specific metabolites formation. The cytochrome P450 inhibition assay was developed using a cocktail consisting of six (6) probe substrates ethoxy-resorufin (CYP1A2), rosiglitazone (CYP2C8), diclofenac (CYP2C9), S-mephenytoin (CYP2C19), dextromethorphan (CYP2D6), and midazolam (CYP3A4). The cocktail was incubated in human liver microsome with NADPH regenerating system (NRS) in a shaking bath at 37±2° C. The formation of specific metabolites was monitored by LC/MS/MS. Test compound was added to the cocktail-liver microsome mixture at varying concentrations and its effect on cytochrome P450 activity was determined by analyzing the rate of specific metabolite formation. The percent inhibition was calculated and plotted with reference to the concentration, and the IC50 value for inhibition was derived by fitting the data with a using log(inhibitor) vs. normalized response with variable slope least squares fit by Graphpad Prism® software. […].

PAMPA permeability = settings: PAMPA, 5 hours at RT
Source text: Parallel artificial membrane permeability (PAMPA) assay is a non-cell based assay designed to predict in vivo biological membrane permeability of drugs in early stage of drug discovery. […] The Corning Gentest Pre-coated PAMPA plate system was designed by 96-well insert system with a 0.45 μm PVDF (polyvinylidene fluoride) filter plate which has been pre-coated with structured tri-layers of phospholipids (lipid/oil/lipid) and a matched receiver microplate.
Donor solutions of test compounds (300 μL, 20 μM in PBS/MeOH 90:10) were added to each well of the donor plate. 200 μL of PBS/MeOH 90:10 was added to each well of the acceptor plate. The acceptor plate was coupled with the donor plate and incubated for 5 hours at room temperature (RT) without agitation. In each plate, compounds were tested in triplicate. At the end of the incubation, drug concentration in the initial donor solution, acceptor and the donor wells were determined using LC/MS/MS. A five (5) points standard curve from 0.1 to 1000 nM for each test compound were prepared. Analyte samples were diluted to within standard curve concentration with ACN/H2O 50:50 prior analysis.
All samples were analyzed by electrospray ionization (ESI) liquid chromatograph/mass spectrometry (LC/MS) system utilizing Sciex 5500 quadropule ion trap (Qtrap) mass spectrometry with Shidmazu Nexera X2 UHPLC. The LC-MS/MS instrument monitored each of the test compound in the study based of their respective mass-to-charge (m/z) transitions and MS parameters. Chromatographic separation was achieved on Phenomenex Luna C18 column (50×2.0 mm, 3 μm particle size) by using a gradient elution: mobile phase A contains 0.1% formic acid in water and mobile phase B contains 0.1% formic acid in acetonitrile; A/B (99:1) from 0 to 1 minutes; to A/B (1:99) from 1 to 4 minutes; A/B (1:99) from 4 to 8 minutes; to A/B (99:1) from 8 to 8.20 minutes; A/B (99:1) from 8.2 to 9 minutes. The flow rate was 0.4 mL/min and the column temperature was maintained at 35° C. and autosampler temperature at 4° C. For detection, the electrospray ionization operated in the positive mode using multiple reaction monitoring (MRM).
Data acquisition, and peak integrations were obtained by Analyst® Version 1.7.1 (Sciex) operating with Windows® (Microsoft). The standard curve regressions and sample concentrations were generated and calculated by Analyst®. Concentrations in the sample solutions were determined based on the measured peak area ratios from the response of the analyte to the internal standard with reference to the standard calibration curve. All sample calculations were calculated using a linear regression with 1/x^2 weighting (where x is the concentration of given calibration standard level).
Permeability of the test compounds was calculated using the following formula:
The permeability of compounds was evaluated with the parallel artificial membrane permeation assay (PAMPA) as an in vivo model of passive diffusion across a porous filter coated with a lipid/oil/lipid tri-layer artificial membrane. […] Donor solutions of test compounds (300 μL, 20 μM in PBS/MeOH 90:10) were added to each well of the donor plate. 200 μL of PBS/MeOH 90:10 was added to each well of the acceptor plate. The acceptor plate was coupled with the donor plate and incubated for 5 hours at room temperature (RT) without agitation. In each plate, compounds were tested in triplicate. At the end of the incubation, drug concentration in the initial donor solution, acceptor and the donor wells were determined using LC/MS/MS. Permeability of test compounds was calculated based on the formula described in the General Procedures above. The PAMPA permeability classification criteria are categorized into three (3) classes with a high (Pe≥1.5×10−6 cm/s), intermediate (5.5×10−8<Pe<1.5×10−6 cm/s), and low (Pe<5.5×10−8 cm/s) permeability.

CYP1A2 = molecular target: T2, CYP1A2 (Homo sapiens, UniProt P05177); assay: CYP-direct inhibition, CYP1A2; assay type: in vitro ADME; settings: human liver microsome; substrate ethoxy-resorufin; read-out: IC50 CYP-1A2
T2 construct: from tissue; host or cells: pooled human liver microsomes
T2 sequence (P05177 1-516): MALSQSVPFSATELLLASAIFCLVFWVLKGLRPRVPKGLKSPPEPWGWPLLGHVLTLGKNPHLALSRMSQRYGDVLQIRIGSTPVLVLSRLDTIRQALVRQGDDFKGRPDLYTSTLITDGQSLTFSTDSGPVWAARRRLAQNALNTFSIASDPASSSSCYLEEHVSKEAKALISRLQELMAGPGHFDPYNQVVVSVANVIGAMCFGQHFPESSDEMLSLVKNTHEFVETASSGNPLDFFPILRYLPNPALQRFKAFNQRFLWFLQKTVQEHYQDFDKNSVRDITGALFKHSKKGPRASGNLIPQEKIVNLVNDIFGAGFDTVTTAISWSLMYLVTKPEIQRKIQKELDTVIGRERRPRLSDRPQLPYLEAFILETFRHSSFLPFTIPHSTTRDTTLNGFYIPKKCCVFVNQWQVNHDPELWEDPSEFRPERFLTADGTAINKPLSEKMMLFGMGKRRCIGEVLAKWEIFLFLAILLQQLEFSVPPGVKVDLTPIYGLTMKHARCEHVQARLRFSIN
Method: as §1, §2, §3

CYP2C9 = molecular target: T3, CYP2C9 (Homo sapiens, UniProt P11712); assay: CYP-direct inhibition, CYP2C9; assay type: in vitro ADME
T3 construct: from tissue; host or cells: pooled human liver microsomes
T3 sequence (P11712 whole entry): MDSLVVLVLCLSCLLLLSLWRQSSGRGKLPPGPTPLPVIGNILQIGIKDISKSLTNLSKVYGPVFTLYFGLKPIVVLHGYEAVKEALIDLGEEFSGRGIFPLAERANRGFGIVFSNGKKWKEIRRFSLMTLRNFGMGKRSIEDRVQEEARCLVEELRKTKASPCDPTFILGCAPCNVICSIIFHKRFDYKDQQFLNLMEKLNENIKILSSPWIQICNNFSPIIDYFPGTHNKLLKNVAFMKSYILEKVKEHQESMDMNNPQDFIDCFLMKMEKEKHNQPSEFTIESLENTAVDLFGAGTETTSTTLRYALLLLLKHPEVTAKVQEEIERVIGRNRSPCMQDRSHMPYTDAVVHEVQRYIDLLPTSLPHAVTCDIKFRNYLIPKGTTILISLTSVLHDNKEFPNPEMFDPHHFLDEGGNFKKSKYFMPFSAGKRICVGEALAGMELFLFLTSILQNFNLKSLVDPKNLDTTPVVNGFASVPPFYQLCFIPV
Method: as §1, §2, §3

CYP2D6 = molecular target: T4, CYP2D6 (Homo sapiens, UniProt P10635); assay: CYP-direct inhibition, CYP2D6; assay type: in vitro ADME; settings: human liver microsome; substrate dextromethorphan; read-out: IC50 CYP-2D6
T4 construct: from tissue; host or cells: pooled human liver microsomes
T4 sequence (P10635 whole entry): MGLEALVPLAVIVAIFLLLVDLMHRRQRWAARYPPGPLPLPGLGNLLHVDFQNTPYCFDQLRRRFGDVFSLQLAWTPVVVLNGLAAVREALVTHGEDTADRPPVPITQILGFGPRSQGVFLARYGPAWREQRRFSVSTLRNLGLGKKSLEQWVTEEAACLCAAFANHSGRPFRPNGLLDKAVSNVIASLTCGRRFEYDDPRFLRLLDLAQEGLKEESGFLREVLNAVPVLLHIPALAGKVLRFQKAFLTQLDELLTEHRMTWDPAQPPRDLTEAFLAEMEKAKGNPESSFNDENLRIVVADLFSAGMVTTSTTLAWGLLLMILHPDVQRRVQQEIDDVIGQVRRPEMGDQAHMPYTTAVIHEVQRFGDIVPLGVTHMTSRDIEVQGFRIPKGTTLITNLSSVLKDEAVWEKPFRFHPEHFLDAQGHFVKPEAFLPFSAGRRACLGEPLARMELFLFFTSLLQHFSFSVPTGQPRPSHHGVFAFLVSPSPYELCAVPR
Method: as §1, §2, §3

[1] = PAMPA permeability Classification, 20 μM donor
[2] = Permeability, Pe, 20 μM donor in PBS/MeOH 90:10

T1 sequence (P08684 whole entry): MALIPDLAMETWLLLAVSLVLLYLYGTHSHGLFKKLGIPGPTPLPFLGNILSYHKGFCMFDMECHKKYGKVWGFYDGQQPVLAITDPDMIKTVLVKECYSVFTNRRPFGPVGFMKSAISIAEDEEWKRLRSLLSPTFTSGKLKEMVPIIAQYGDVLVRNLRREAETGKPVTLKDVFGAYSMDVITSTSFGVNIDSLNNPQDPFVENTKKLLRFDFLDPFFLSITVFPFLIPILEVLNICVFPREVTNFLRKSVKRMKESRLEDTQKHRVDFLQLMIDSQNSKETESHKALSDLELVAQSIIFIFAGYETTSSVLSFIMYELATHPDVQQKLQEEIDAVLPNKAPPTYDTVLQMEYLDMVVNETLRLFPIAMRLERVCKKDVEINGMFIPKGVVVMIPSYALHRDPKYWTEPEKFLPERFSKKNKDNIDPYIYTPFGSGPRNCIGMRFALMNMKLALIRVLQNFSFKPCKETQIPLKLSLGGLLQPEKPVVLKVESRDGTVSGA

IC50 (CYP3A4) [µM] | Papp at 5 h, 20 μM (PAMPA permeability; [1]) [×10⁻⁶ cm/s] | Papp at 5 h, 20 μM (PAMPA permeability; [2]) [×10⁻⁶ cm/s] | IC50 (CYP1A2) [µM] | IC50 (CYP2C9) [µM] | IC50 (CYP2D6) [µM] | Structure (SMILES)
> 100 | < 0.055 | 0.00676 | > 100 | > 100 | > 100 | COc1cc2c(NC3CCS(=O)(=O)CC3)nc(N3CCCN(C)CC3)nc2cc1OCCCN1CCCC1 [Compound 110, 4-((6-methoxy-2-(4-methyl-1,4-diazepan-1-yl)-7-(3-(pyrrolidin-1-yl)propoxy)quinazolin-4-yl)amino)tetrahydro-2H-thiopyran 1,1-dioxide]
> 100 | < 0.055 | 0.00981 | > 100 | > 100 | > 100 | COc1cc2c(NCC(N)=O)nc(N3CCC(F)(F)CC3)nc2cc1OCCCN1CCCC1 [Compound 9, 2-((2-(4,4-difluoropiperidin-1-yl)-6-methoxy-7-(3-(pyrrolidin-1-yl)propoxy)quinazolin-4-yl)amino)acetamide]
> 100 | < 0.055 | 0.000555 | > 100 | > 100 | 64.9 | COc1cc2c(NC3CCN(C(C)C)CC3)nc(-n3cccn3)nc2cc1OCCCN1CCCC1 [Compound 157, N-(1-isopropylpiperidin-4-yl)-6-methoxy-2-(1H-pyrazol-1-yl)-7-(3-(pyrrolidin-1-yl)propoxy)quinazolin-4-amine]
3.85 | < 0.055 | 0.0129 | 10.4 | 65.5 | 4.88 | COc1cc2c(Nc3ccncc3)nc(-n3ccnc3)nc2cc1OCCCN1CCCC1 [Compound 130, 2-(1H-imidazol-1-yl)-6-methoxy-N-(pyridin-4-yl)-7-(3-(pyrrolidin-1-yl)propoxy)quinazolin-4-amine]
> 100 | 0.055 to 1.5 | 0.458 | > 100 | > 100 | 29.5 | COc1cc2c(NC3COC3)nc(N3CCC(F)(F)CC3)nc2cc1OCCCN1CCCC1 [Compound 11, 2-(4,4-difluoropiperidin-1-yl)-6-methoxy-N-(oxetan-3-yl)-7-(3-(pyrrolidin-1-yl)propoxy)quinazolin-4-amine]
> 100 | 0.055 to 1.5 | 0.238 | > 100 | > 100 | > 100 | COc1cc2c(NC3CCOCC3)nc(N3CCOCC3)nc2cc1OCCCN1CCCC1 [Compound 195, 6-methoxy-2-morpholino-7-(3-(pyrrolidin-1-yl)propoxy)-N-(tetrahydro-2H-pyran-4-yl)quinazolin-4-amine]
> 100 | < 0.055 | 0.000648 | > 100 | > 100 | 29 | COc1cc2c(NC3CCS(=O)(=O)CC3)nc(N3CCOCC3)nc2cc1OCCCN1CCCC1 [Compound 102, 4-((6-methoxy-2-morpholino-7-(3-(pyrrolidin-1-yl)propoxy)quinazolin-4-yl)amino)tetrahydro-2H-thiopyran 1,1-dioxide]
> 100 | < 0.055 | 0.0119 | > 100 | > 100 | > 100 | COc1cc2c(NC3CCS(=O)(=O)CC3)nc(N3CCS(=O)(=O)CC3)nc2cc1OCCCN1CCCC1 [Compound 103, 4-(4-((1,1-dioxidotetrahydro-2H-thiopyran-4-yl)amino)-6-methoxy-7-(3-(pyrrolidin-1-yl)propoxy)quinazolin-2-yl)thiomorpholine 1,1-dioxide]
> 100 | < 0.055 | 0.00173 | > 100 | > 100 | > 100 | COc1cc2c(NC3CCNCC3)nc(N3CCC(F)(F)CC3)nc2cc1OCCCN1CCCC1 [Compound 8, 2-(4,4-difluoropiperidin-1-yl)-6-methoxy-N-(piperidin-4-yl)-7-(3-(pyrrolidin-1-yl)propoxy)quinazolin-4-amine]
> 100 | < 0.055 | 0.035 | > 100 | > 100 | 84.8 | COc1cc2c(NC3CCOCC3)nc(N3CCS(=O)(=O)CC3)nc2cc1OCCCN1CCCC1 [Compound 196, 4-(6-methoxy-7-(3-(pyrrolidin-1-yl)propoxy)-4-((tetrahydro-2H-pyran-4-yl)amino)quinazolin-2-yl)thiomorpholine 1,1-dioxide]
> 100 | < 0.055 | 0.00453 | > 100 | > 100 | 65.6 | COc1cc2c(N[C@H]3CCCNC3)nc(N3CCCC3)nc2cc1OCCCN1CCCC1 [Compound 158, (S)-6-methoxy-N-(piperidin-3-yl)-2-(pyrrolidin-1-yl)-7-(3-(pyrrolidin-1-yl)propoxy)quinazolin-4-amine]
> 100 | 0.055 to 1.5 | 1.32 | > 100 | > 100 | 55.9 | COc1cc2c(NC3CCS(=O)(=O)CC3)nc(N3CCC(F)(F)CC3)nc2cc1C#CCN1CCCC1 [Compound 248, 4-((2-(4,4-difluoropiperidin-1-yl)-6-methoxy-7-(3-(pyrrolidin-1-yl)prop-1-yn-1-yl)quinazolin-4-yl)amino)tetrahydro-2H-thiopyran 1,1-dioxide]
> 100 | < 0.055 | 0.00298 | > 100 | > 100 | 43 | COc1cc2c(NC3CCS(=O)(=O)CC3)nc(N3CCCC3)nc2cc1OCCCN1CCCC1 [Compound 80, 4-((6-methoxy-2-(pyrrolidin-1-yl)-7-(3-(pyrrolidin-1-yl)propoxy)quinazolin-4-yl)amino)tetrahydro-2H-thiopyran 1,1-dioxide]
> 100 | < 0.055 | 0.0299 | > 100 | > 100 | > 100 | COc1cc2c(NC3CCOCC3)nc(N3CCN(C)CC3)nc2cc1OCCCN1CCCC1 [Compound 236, 6-methoxy-2-(4-methylpiperazin-1-yl)-7-(3-(pyrrolidin-1-yl)propoxy)-N-(tetrahydro-2H-pyran-4-yl)quinazolin-4-amine]
> 100 | < 0.055 | 0.0046 | > 100 | > 100 | > 100 | COc1cc2c(NC3CCN(C(C)C)CC3)nc(C#N)nc2cc1OCCCN1CCCC1 [Compound 235, 4-((1-isopropylpiperidin-4-yl)amino)-6-methoxy-7-(3-(pyrrolidin-1-yl)propoxy)quinazoline-2-carbonitrile]
